Measurements reported in patent US9586961B2, “Homopiperazine derivatives as protein tyrosine kinase inhibitors and pharmaceutical use thereof” (LEO PHARMA A/S, priority 2010, dated 2017).

Legend:
Type in all cases: biochemical
JAK1 = molecular target: T1, JAK1 (Homo sapiens, UniProt P23458); assay: JAK1 kinase assay (HTRF, inhibition of phosphorylation of a synthetic peptide); conditions: catalytic domain aa 850-1154, GST-tag; 7 μM ATP (Km); read-out: JAK1 kinase inhibitory activity (EC50)
T1 construct: JAK1 (aa 850-1154) and TYK2 (aa 871-1187) are expressed with an N-terminally fused GST-tag; GST (N); purchased Carna Biosciences, Inc; host or cells: baculovirus expression system
T1 sequence (P23458 850-1154): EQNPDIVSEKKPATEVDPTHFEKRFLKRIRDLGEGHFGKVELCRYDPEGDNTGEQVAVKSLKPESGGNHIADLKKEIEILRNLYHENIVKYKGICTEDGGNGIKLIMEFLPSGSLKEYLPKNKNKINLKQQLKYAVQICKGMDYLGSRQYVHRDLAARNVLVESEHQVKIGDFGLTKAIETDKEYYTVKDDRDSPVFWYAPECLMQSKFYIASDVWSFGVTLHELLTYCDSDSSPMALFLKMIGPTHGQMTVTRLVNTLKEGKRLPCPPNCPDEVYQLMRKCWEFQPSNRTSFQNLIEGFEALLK
Summary of the method: (§1)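 Baculovirus-expressed human catalytic domains (GST-JAK1, GST-TYK2, His-JAK2, His-JAK3) phosphorylated 1 μM TK substrate-biotin at ATP Km (JAK1 7 μM, JAK2 4 μM, JAK3 2 μM, TYK2 13 μM) in pH 7.0 Hepes for 20-30 min at RT, 0.75% DMSO. EDTA stop, then overnight streptavidin-XL665/cryptate-antibody detection and HTRF read.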

TYK2 = molecular target: T2, TYK2 (Homo sapiens, UniProt P29597); assay: TYK2 kinase assay (HTRF, inhibition of phosphorylation of a synthetic peptide); conditions: catalytic domain aa 871-1187, GST-tag; 13 μM ATP (Km); read-out: TYK2 kinase inhibitory activity (EC50)
T2 construct: JAK1 (aa 850-1154) and TYK2 (aa 871-1187) are expressed with an N-terminally fused GST-tag; GST (N); purchased Carna Biosciences, Inc; host or cells: baculovirus expression system
T2 sequence (P29597 871-1187): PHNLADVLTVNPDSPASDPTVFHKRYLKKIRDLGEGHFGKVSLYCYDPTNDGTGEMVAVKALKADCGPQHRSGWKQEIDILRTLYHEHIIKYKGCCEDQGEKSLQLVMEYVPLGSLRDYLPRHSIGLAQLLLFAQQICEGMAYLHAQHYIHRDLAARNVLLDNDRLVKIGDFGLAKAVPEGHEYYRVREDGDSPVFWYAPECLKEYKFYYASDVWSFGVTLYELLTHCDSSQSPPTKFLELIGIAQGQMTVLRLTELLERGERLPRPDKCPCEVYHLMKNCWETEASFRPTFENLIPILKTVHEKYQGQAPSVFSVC
Summary of the method: as §1

JAK3 = molecular target: T3, JAK3 (Homo sapiens, UniProt P52333); assay: JAK3 kinase assay (HTRF, inhibition of phosphorylation of a synthetic peptide); conditions: catalytic domain, His-tag; 2 μM ATP (Km); read-out: JAK3 kinase inhibitory activity (EC50)
T3 construct: All four purified enzymes contain only the catalytic domain; His (N); purchased Carna Biosciences, Inc; host or cells: baculovirus expression system
T3 sequence (P52333 822-1111 limits assumed): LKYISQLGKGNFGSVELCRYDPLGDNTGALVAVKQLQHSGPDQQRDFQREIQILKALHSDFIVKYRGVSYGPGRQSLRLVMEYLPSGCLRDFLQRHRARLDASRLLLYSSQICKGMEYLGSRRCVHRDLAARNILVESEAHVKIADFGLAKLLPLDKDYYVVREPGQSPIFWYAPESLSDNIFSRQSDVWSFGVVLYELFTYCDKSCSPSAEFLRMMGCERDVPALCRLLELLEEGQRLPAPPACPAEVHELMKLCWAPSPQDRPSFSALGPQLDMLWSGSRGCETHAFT
Summary of the method: as §1

JAK2 = molecular target: T4, JAK2 (Homo sapiens, UniProt O60674); assay: JAK2 kinase assay (HTRF, inhibition of phosphorylation of a synthetic peptide); conditions: catalytic domain, His-tag; 4 μM ATP (Km); read-out: JAK2 kinase inhibitory activity (EC50)
T4 construct: All four purified enzymes contain only the catalytic domain; His (N); purchased Carna Biosciences, Inc; host or cells: baculovirus expression system
T4 sequence (O60674 849-1124 limits assumed): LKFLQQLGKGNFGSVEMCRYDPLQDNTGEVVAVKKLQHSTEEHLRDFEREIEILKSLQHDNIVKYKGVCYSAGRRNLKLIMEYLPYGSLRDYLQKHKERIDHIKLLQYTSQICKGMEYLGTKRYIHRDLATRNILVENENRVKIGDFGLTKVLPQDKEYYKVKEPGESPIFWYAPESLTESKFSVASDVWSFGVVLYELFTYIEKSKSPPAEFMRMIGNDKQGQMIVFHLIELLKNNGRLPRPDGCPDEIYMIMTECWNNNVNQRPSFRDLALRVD
Summary of the method: as §1

Question: Which results are given for `CCCCN1CCCN(c2ncnc3[nH]ccc23)CC12CC2` [Example 281, 4-(9-butyl-5,9-diazaspiro[2.6]nonan-5-yl)-7H-pyrrolo[2,3-d]pyrimidine]?
Answer: EC50 (JAK1): 100 to 1000 nM; EC50 (TYK2): > 1000 nM; EC50 (JAK3): 100 to 1000 nM; EC50 (JAK2): 100 to 1000 nM

Question: Which EC50 (JAK1) does the source give for `CCCCC(=O)Nc1nc(N2CCN(Cc3ccccc3)CC3(CC3)C2)c2cc[nH]c2n1` [Example 282, N-[4-(5-benzyl-5,8-diazaspiro[2.6]nonan-8-yl)-7H-pyrrolo[2,3-d]pyrimidin-2-yl]pentanamide] here?
Answer: Its EC50 is greater than 1000 nM.

Question: And the EC50 (TYK2)?
Answer: Its EC50 is greater than 1000 nM.

Question: What about the EC50 (JAK3) of the same molecule?
Answer: Its EC50 is greater than 1000 nM.

Question: And the EC50 (JAK2)?
Answer: Its EC50 is greater than 1000 nM.

Question: Which EC50 (JAK1) does the source give for `CCCCC(=O)Nc1nc(N2CCCN(Cc3ccccc3)C3(CC3)C2)c2cc[nH]c2n1` [Example 283, N-[4-(9-benzyl-5,9-diazaspiro[2.6]nonan-5-yl)-7H-pyrrolo[2,3-d]pyrimidin-2-yl]pentanamide] here?
Answer: Its EC50 is greater than 1000 nM.

Question: What about the EC50 (TYK2) of the same molecule?
Answer: Its EC50 is greater than 1000 nM.

Question: What about the EC50 (JAK3) of the same molecule?
Answer: Its EC50 is greater than 1000 nM.

Question: And the EC50 (JAK2)?
Answer: Its EC50 is greater than 1000 nM.

Question: `CC1CN(c2ncnc3[nH]ccc23)CC2(CC2)CN1C(=O)c1ccccc1` (centres unmarked) [Example 284, [7-methyl-5-(7H-pyrrolo[2,3-d]pyrimidin-4-yl)-5,8-diazaspiro[2.6]nonan-8-yl]-phenyl-methanone] was tested. Which EC50 (JAK1) did it give?
Answer: The EC50 was greater than 1000 nM.

Question: And the EC50 (TYK2)?
Answer: The EC50 was greater than 1000 nM.

Question: What about the EC50 (JAK3) of the same molecule?
Answer: The EC50 was greater than 1000 nM.

Question: And the EC50 (JAK2)?
Answer: Its EC50 is greater than 1000 nM.

Question: What does the source list for `CC1CN(c2ncnc3[nH]ccc23)CC2(CC2)CN1C(=O)CC1CCCC1` (centres unmarked) [Example 285, 2-cyclopentyl-1-[7-methyl-5-(7H-pyrrolo[2,3-d]pyrimidin-4-yl)-5,8-diazaspiro[2.6]nonan-8-yl]ethanone]?
Answer: EC50 (JAK1): 100 to 1000 nM; EC50 (TYK2): > 1000 nM; EC50 (JAK3): > 1000 nM; EC50 (JAK2): 100 to 1000 nM

Question: `CC1CN(c2ncnc3[nH]ccc23)CC2(CC2)CN1C(=O)Cc1ccc(C#N)cc1` (centres unmarked) [Example 286, 4-[2-[7-methyl-5-(7H-pyrrolo[2,3-d]pyrimidin-4-yl)-5,8-diazaspiro[2.6]nonan-8-yl]-2-oxo-ethyl]benzonitrile] was tested. Which EC50 (JAK1) did it give?
Answer: The EC50 was greater than 1000 nM.

Question: And the EC50 (TYK2)?
Answer: Its EC50 is greater than 1000 nM.

Question: What about the EC50 (JAK3) of the same molecule?
Answer: Its EC50 is greater than 1000 nM.

Question: And the EC50 (JAK2)?
Answer: Its EC50 is greater than 1000 nM.

Question: Which results are given for `c1nc(N2CCNCC3(CC3)C2)c2cc[nH]c2n1` [Example 290]?
Answer: EC50 (JAK1): > 1000 nM; EC50 (TYK2): > 1000 nM; EC50 (JAK3): > 1000 nM; EC50 (JAK2): > 1000 nM

Question: Which EC50 (JAK1) does the source give for `c1nc(N2CCNC3(CC2)CC3)c2cc[nH]c2n1` [Example 291] here?
Answer: Its EC50 is greater than 1000 nM.

Question: What about the EC50 (TYK2) of the same molecule?
Answer: Its EC50 is greater than 1000 nM.

Question: And the EC50 (JAK3)?
Answer: The EC50 was greater than 1000 nM.

Question: And the EC50 (JAK2)?
Answer: Its EC50 is greater than 1000 nM.

Question: What does the source list for `CC1CN(c2ncnc3[nH]ccc23)CC2(CC2)CN1` (centres unmarked) [Example 293]?
Answer: EC50 (JAK1): > 1000 nM; EC50 (TYK2): > 1000 nM; EC50 (JAK3): > 1000 nM; EC50 (JAK2): > 1000 nM

Question: For `CCCCC(=O)Nc1nc(N2CCNCC3(CC3)C2)c2cc[nH]c2n1` [Example 294], which EC50 (JAK1) is on record?
Answer: Its EC50 is greater than 1000 nM.

Question: And the EC50 (TYK2)?
Answer: Its EC50 is greater than 1000 nM.

Question: What about the EC50 (JAK3) of the same molecule?
Answer: The EC50 was greater than 1000 nM.

Question: What about the EC50 (JAK2) of the same molecule?
Answer: Its EC50 is greater than 1000 nM.

Question: Which results are given for `CCCCC(=O)Nc1nc(N2CCCNC3(CC3)C2)c2cc[nH]c2n1` [Example 295]?
Answer: EC50 (JAK1): > 1000 nM; EC50 (TYK2): > 1000 nM; EC50 (JAK3): > 1000 nM; EC50 (JAK2): > 1000 nM
